System: E. multilocularis metacestode vesicles
Experiment: Phosphoglucose isomerase (PGI) release assay (damage-marker release) on metacestode vesicles
Assay type: cell-based, Echinococcus multilocularis
Settings: overview screen, 10 μM, singlets, 5 days, relative to 0.1 % Triton X-100, DMSO subtracted

Compared with Clc1ccc(Cn2c(CN3CCCC3)nc3ccccc32)cc1 [MMV002015], c1ccc(-c2nnc3c4ccccc4c(N4CCNCC4)nn23)cc1 [MMV1581551] is lower in “PGI d5 (relative PGI release)” value: -0.9034% for the first, -2.787% for the second.

First: Oc1ccc(NCc2ccccc2OCc2ccccc2)cc1 [MMV1580504]
Second: CCc1nc2ccccn2c1C(=O)NCc1ccccc1 [MMV1663457]
The “PGI d5 (relative PGI release)” value of the first is higher: -1.084% for the first, -2.34% for the second.

First: CCC(C)(C)c1ccc(CC(C)CN2C[C@@H](C)O[C@@H](C)C2)cc1.Cl (stereo partly drawn) [MMV1634358]
Second: COc1ccc(CNC(=O)C(NS(=O)(=O)c2ccc3nc(C)sc3c2)C(C)C)cc1 (stereo not drawn) [MMV303733]
The “PGI d5 (relative PGI release)” value of the first is higher: 0.7921% for the first, -2.8306% for the second.

Compared with CN(C)c1[nH]c(=O)ncc1F [MMV1782223], Nc1nc2c(ncn2[C@@H]2O[C@H](CO)[C@@H](O)[C@H]2F)c(=O)[nH]1 [MMV1633677] is higher in “PGI d5 (relative PGI release)” value: -2.446% for the first, -0.3308% for the second.

First: C=C(C)[C@@H]1CC[C@]2(C(=O)O)CC[C@]3(C)[C@H](CC[C@@H]4[C@@]5(C)CC[C@H](O)C(C)(C)[C@@H]5CC[C@]43C)[C@@H]12 [MMV638198]
Second: C[C@H]1CC[C@@]2(O)C(C)(C)[C@@H]3CC[C@@]2(C)[C@H]1C3 [MMV1578556]
The “PGI d5 (relative PGI release)” value of the first is higher: -0.508% for the first, -0.5138% for the second.

Compared with O=C(O)[C@H]1C2CCC(CC2)[C@@H]1Nc1nc(-c2c[nH]c3ncc(F)cc23)ncc1F [MMV1593516], Nc1nc(-c2ccccc2)nc2[nH]nc(Nc3ccc(C(F)(F)F)cc3)c12 [MMV1633968] is lower in “PGI d5 (relative PGI release)” value: 2.198% for the first, 0.2239% for the second.

Compared with O=C(CCc1ccc2c(c1)OCO2)NCc1ccc(-c2ccccc2F)cc1 [MMV1782110], COc1cc2c(O)c3c(c(-c4ccc5c(c4)OCO5)c2cc1OC)C(=O)OC3 [MMV102270] is lower in “PGI d5 (relative PGI release)” value: -0.8152% for the first, -1.791% for the second.

Going from Oc1c(C(Nc2nc3ccccc3s2)c2ccc(OC(F)F)cc2)ccc2cccnc12 (stereo not drawn) [MMV019724] to COc1ccc(-n2cnc3cc(NCc4ccco4)ccc32)cc1 [MMV617332], the “PGI d5 (relative PGI release)” value rises from 0.06264% to 0.2921%.

Going from CCC(C)n1ncn(-c2ccc(N3CCN(c4ccc(OCC5COC(Cn6cncn6)(c6ccc(Cl)cc6Cl)O5)cc4)CC3)cc2)c1=O (stereo not drawn) [MMV637528] to O=C(c1ccccc1)N1CCN(c2ccccc2NC(=O)C(Cl)(Cl)Cl)CC1 [MMV001014], the “PGI d5 (relative PGI release)” value rises from -2.417% to 0.3132%.

Going from C[C@@H]1O[C@@H]1P(=O)(O)O [MMV002354] to COc1ccc2c(c1OC)C(=O)OC2C1c2c(cc3c(c2OC)OCO3)CCN1C (stereo not drawn) [MMV002780], the “PGI d5 (relative PGI release)” value falls from 4.505% to -0.3679%.

Going from COC1CC2CCC(C)C(O)(O2)C(=O)C(=O)N2CCCCC2C(=O)OC(C(C)CC2CCC(OCCO)C(OC)C2)CC(=O)C(C)/C=C(\C)C(O)C(OC)C(=O)C(C)CC(C)/C=C/C=C/C=C/1C (stereo not drawn) [MMV639951] to Fc1ccc2c(/C=C/c3cccnc3)c[nH]c2c1 [MMV1578889], the “PGI d5 (relative PGI release)” value falls from -0.3944% to -2.006%.

Same assay, conditions: overview screen, 10 μM, singlets, 12 days, relative to 0.1 % Triton X-100, DMSO subtracted

Going from Clc1ccc(Cn2c(CN3CCCC3)nc3ccccc32)cc1 [MMV002015] to c1ccc(-c2nnc3c4ccccc4c(N4CCNCC4)nn23)cc1 [MMV1581551], the “PGI d12 (relative PGI release)” value falls from -18.1648% to -25.7664%.

Compared with Oc1ccc(NCc2ccccc2OCc2ccccc2)cc1 [MMV1580504], CCc1nc2ccccn2c1C(=O)NCc1ccccc1 [MMV1663457] is higher in “PGI d12 (relative PGI release)” value: -20.6703% for the first, -12.7903% for the second.

Going from CCC(C)(C)c1ccc(CC(C)CN2C[C@@H](C)O[C@@H](C)C2)cc1.Cl (stereo partly drawn) [MMV1634358] to COc1ccc(CNC(=O)C(NS(=O)(=O)c2ccc3nc(C)sc3c2)C(C)C)cc1 (stereo not drawn) [MMV303733], the “PGI d12 (relative PGI release)” value rises from -20.4097% to -9.3435%.

Going from CN(C)c1[nH]c(=O)ncc1F [MMV1782223] to Nc1nc2c(ncn2[C@@H]2O[C@H](CO)[C@@H](O)[C@H]2F)c(=O)[nH]1 [MMV1633677], the “PGI d12 (relative PGI release)” value rises from -24.7543% to 49.9588%.

First: C=C(C)[C@@H]1CC[C@]2(C(=O)O)CC[C@]3(C)[C@H](CC[C@@H]4[C@@]5(C)CC[C@H](O)C(C)(C)[C@@H]5CC[C@]43C)[C@@H]12 [MMV638198]
Second: C[C@H]1CC[C@@]2(O)C(C)(C)[C@@H]3CC[C@@]2(C)[C@H]1C3 [MMV1578556]
The “PGI d12 (relative PGI release)” value of the first is higher: -0.6563% for the first, -7.5984% for the second.

First: O=C(O)[C@H]1C2CCC(CC2)[C@@H]1Nc1nc(-c2c[nH]c3ncc(F)cc23)ncc1F [MMV1593516]
Second: Nc1nc(-c2ccccc2)nc2[nH]nc(Nc3ccc(C(F)(F)F)cc3)c12 [MMV1633968]
The “PGI d12 (relative PGI release)” value of the first is lower: -18.5586% for the first, 0.02121% for the second.

Compared with O=C(CCc1ccc2c(c1)OCO2)NCc1ccc(-c2ccccc2F)cc1 [MMV1782110], COc1cc2c(O)c3c(c(-c4ccc5c(c4)OCO5)c2cc1OC)C(=O)OC3 [MMV102270] is higher in “PGI d12 (relative PGI release)” value: -13.3688% for the first, 18.1463% for the second.

First: Oc1c(C(Nc2nc3ccccc3s2)c2ccc(OC(F)F)cc2)ccc2cccnc12 (stereo not drawn) [MMV019724]
Second: COc1ccc(-n2cnc3cc(NCc4ccco4)ccc32)cc1 [MMV617332]
The “PGI d12 (relative PGI release)” value of the first is higher: 0.4013% for the first, -0.1496% for the second.

First: CCC(C)n1ncn(-c2ccc(N3CCN(c4ccc(OCC5COC(Cn6cncn6)(c6ccc(Cl)cc6Cl)O5)cc4)CC3)cc2)c1=O (stereo not drawn) [MMV637528]
Second: O=C(c1ccccc1)N1CCN(c2ccccc2NC(=O)C(Cl)(Cl)Cl)CC1 [MMV001014]
The “PGI d12 (relative PGI release)” value of the first is lower: -24.1326% for the first, -4.23% for the second.

First: C[C@@H]1O[C@@H]1P(=O)(O)O [MMV002354]
Second: COc1ccc2c(c1OC)C(=O)OC2C1c2c(cc3c(c2OC)OCO3)CCN1C (stereo not drawn) [MMV002780]
The “PGI d12 (relative PGI release)” value of the first is lower: -11.1824% for the first, -3.872% for the second.

Going from COC1CC2CCC(C)C(O)(O2)C(=O)C(=O)N2CCCCC2C(=O)OC(C(C)CC2CCC(OCCO)C(OC)C2)CC(=O)C(C)/C=C(\C)C(O)C(OC)C(=O)C(C)CC(C)/C=C/C=C/C=C/1C (stereo not drawn) [MMV639951] to Fc1ccc2c(/C=C/c3cccnc3)c[nH]c2c1 [MMV1578889], the “PGI d12 (relative PGI release)” value rises from -20.0049% to 1.559%.

System: E. multilocularis metacestode vesicles
Experiment: Metacestode vesicle viability assay (ATP, CellTiter-Glo)
Assay type: cell-based, Echinococcus multilocularis
Settings: 10 µM
Description: Viability was assessed after 12 days using the same metacestode vesicles as for the PGI release assay. Triton X-100 was added to each well to a final concentration of 0.1 %. Subsequently the metacestode vesicles were broken mechanically and 50 μL of the supernatant was mixed with 50 μL of CellTiter-Glo® buffer (Promega, Dübendorf, Switzerland). Measurements were performed on a HIDEX Sense microplate reader.

With Clc1ccc(Cn2c(CN3CCCC3)nc3ccccc32)cc1 [MMV002015] the “Viability d12 (relative viability)” value was 85.4319%.

Same assay, conditions: overview screen, 10 μM, singlets, 12 days, relative to DMSO control

Going from c1ccc(-c2nnc3c4ccccc4c(N4CCNCC4)nn23)cc1 [MMV1581551] to O=C(c1ccccc1)N1CCN(c2ccccc2NC(=O)C(Cl)(Cl)Cl)CC1 [MMV001014], the “Viability d12 (relative viability)” value rises from 63.6248% to 104.308%.

Compared with Oc1ccc(NCc2ccccc2OCc2ccccc2)cc1 [MMV1580504], CCc1nc2ccccn2c1C(=O)NCc1ccccc1 [MMV1663457] is lower in “Viability d12 (relative viability)” value: 79.6345% for the first, 46.6749% for the second.

Going from CCC(C)(C)c1ccc(CC(C)CN2C[C@@H](C)O[C@@H](C)C2)cc1.Cl (stereo partly drawn) [MMV1634358] to COc1ccc(CNC(=O)C(NS(=O)(=O)c2ccc3nc(C)sc3c2)C(C)C)cc1 (stereo not drawn) [MMV303733], the “Viability d12 (relative viability)” value rises from 23.2957% to 97.8993%.

Going from CN(C)c1[nH]c(=O)ncc1F [MMV1782223] to Nc1nc2c(ncn2[C@@H]2O[C@H](CO)[C@@H](O)[C@H]2F)c(=O)[nH]1 [MMV1633677], the “Viability d12 (relative viability)” value rises from 98.8605% to 216.057%.

Going from C=C(C)[C@@H]1CC[C@]2(C(=O)O)CC[C@]3(C)[C@H](CC[C@@H]4[C@@]5(C)CC[C@H](O)C(C)(C)[C@@H]5CC[C@]43C)[C@@H]12 [MMV638198] to C[C@H]1CC[C@@]2(O)C(C)(C)[C@@H]3CC[C@@]2(C)[C@H]1C3 [MMV1578556], the “Viability d12 (relative viability)” value rises from 121.139% to 153.384%.

Compared with O=C(O)[C@H]1C2CCC(CC2)[C@@H]1Nc1nc(-c2c[nH]c3ncc(F)cc23)ncc1F [MMV1593516], Nc1nc(-c2ccccc2)nc2[nH]nc(Nc3ccc(C(F)(F)F)cc3)c12 [MMV1633968] is higher in “Viability d12 (relative viability)” value: 121.454% for the first, 133.404% for the second.

Going from O=C(CCc1ccc2c(c1)OCO2)NCc1ccc(-c2ccccc2F)cc1 [MMV1782110] to COc1cc2c(O)c3c(c(-c4ccc5c(c4)OCO5)c2cc1OC)C(=O)OC3 [MMV102270], the “Viability d12 (relative viability)” value rises from 100.363% to 116.78%.

Going from Oc1c(C(Nc2nc3ccccc3s2)c2ccc(OC(F)F)cc2)ccc2cccnc12 (stereo not drawn) [MMV019724] to COc1ccc(-n2cnc3cc(NCc4ccco4)ccc32)cc1 [MMV617332], the “Viability d12 (relative viability)” value falls from 220.792% to 117.278%.

First: CCC(C)n1ncn(-c2ccc(N3CCN(c4ccc(OCC5COC(Cn6cncn6)(c6ccc(Cl)cc6Cl)O5)cc4)CC3)cc2)c1=O (stereo not drawn) [MMV637528]
Second: COc1ccc2c(c1OC)C(=O)OC2C1c2c(cc3c(c2OC)OCO3)CCN1C (stereo not drawn) [MMV002780]
The “Viability d12 (relative viability)” value of the first is lower: 37.4902% for the first, 419.126% for the second.

Compared with C[C@@H]1O[C@@H]1P(=O)(O)O [MMV002354], COC1CC2CCC(C)C(O)(O2)C(=O)C(=O)N2CCCCC2C(=O)OC(C(C)CC2CCC(OCCO)C(OC)C2)CC(=O)C(C)/C=C(\C)C(O)C(OC)C(=O)C(C)CC(C)/C=C/C=C/C=C/1C (stereo not drawn) [MMV639951] is higher in “Viability d12 (relative viability)” value: 22.2102% for the first, 85.7507% for the second.

Fc1ccc2c(/C=C/c3cccnc3)c[nH]c2c1 [MMV1578889] was tested, and the “Viability d12 (relative viability)” value was 96.8566%.
